According to article PMC7734281, “Functionalized Oxoindolin Hydrazine Carbothioamide Derivatives as Highly Potent Inhibitors of Nucleoside Triphosphate Diphosphohydrolases” (Frontiers in Pharmacology, 2020):

Experiments:
Type in all cases: biochemical
[1] = target: T1, m-NTPDase3 (Mus musculus, UniProt Q8BFW6); assay: m-NTPDase3 inhibition, malachite green assay; details: for inhibition at 100 µM: compound 100 µM; for IC50: mean ± SEM of three independent experiments
T1 construct: made in house; host or cells: COS-7 cells, transient transfection; crude protein extract after sonication
T1 sequence (Q8BFW6 1-529): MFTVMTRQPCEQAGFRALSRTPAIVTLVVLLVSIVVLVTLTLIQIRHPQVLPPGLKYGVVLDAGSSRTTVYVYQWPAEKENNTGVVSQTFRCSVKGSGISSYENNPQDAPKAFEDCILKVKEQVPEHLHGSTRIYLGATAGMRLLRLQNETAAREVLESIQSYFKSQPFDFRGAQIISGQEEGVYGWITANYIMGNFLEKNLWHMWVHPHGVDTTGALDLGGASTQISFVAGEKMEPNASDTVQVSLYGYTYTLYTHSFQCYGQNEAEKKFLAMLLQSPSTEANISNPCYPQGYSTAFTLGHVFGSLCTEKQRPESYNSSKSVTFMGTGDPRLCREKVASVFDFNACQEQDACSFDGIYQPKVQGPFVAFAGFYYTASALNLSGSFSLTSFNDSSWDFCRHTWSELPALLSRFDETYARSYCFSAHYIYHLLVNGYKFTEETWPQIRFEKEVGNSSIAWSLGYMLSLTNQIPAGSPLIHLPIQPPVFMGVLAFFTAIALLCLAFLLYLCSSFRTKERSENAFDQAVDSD
Description: (§1) COS-7 cells were transfected with plasmids expressing human or mouse NTPDases1, -2, -3, and -8 as previously described ([Levesque et al., 2007]; [Lecka et al., 2014]) Briefly, the confluent cells were transferred to Dulbecco’s Modified Eagle’s Medium containing no fetal bovine serum. Then, these cells were incubated with plasmid DNA (6 µg) and Lipofectamine reagent (24 µl) at 37°C. After 5 h, transfection was terminated with the addition of an equal volume of DMEM/F-12 (supplemented with 20% FBS) and cells were collected by harvesting after 40–72 h.
(§2) To prepare protein extracts, transfected COS-7 cells were washed three times with tris-saline buffer while temperature was maintained at 4°C. Then cells were scraped and resuspended in harvesting buffer containing 95 mM NaCl, 45 mM tris and 0.1 mM phenylmethylsulfonyl fluoride (pH 7.5). Cells were again washed twice by centrifugation for 5 min at 300 × g at 4°C and then resuspended in harvesting buffer (supplemented with 10 μg ml aprotinin). Following sonication, cellular debris was isolated by 10 min centrifugation at 300 g at 4°C. Subsequently, supernatant was removed very carefully and protein concentration was determined by using Bradford microplate assay while using the bovine serum albumin as a standard ([Bradford, 1976]).
(§3) The inhibitory effects of synthesized compounds on h-NTPDase1, -2, -3, and -8 were determined as described previously, although with slight modifications ([Martín-Satué et al., 2009]). Assay was conducted in a reaction medium containing 50 mM tris-HCl and 5 mM CaCl2 (pH 7.4). All the test compounds were dissolved in dimethyl sulfoxide (DMSO, 10%) and initially screened at a concentration of 100 µM. A reaction mixture containing 55 µl of assay buffer, 10 µl of test compound solution and 10 µl of h-NTPDase1 (58 ng/well) or h-NTPDase2 (79 ng/well) or h-NTPDase3 (163 ng/well) or h-NTPDase8 (66 ng/well) was incubated at 37°C for 10 min. Following the incubation, a 10 µl solution of adenosine triphosphate (ATP, 100 µm) was added as substrate and reaction mixture was again incubated for 15 min at 37°C. The reaction was stopped by adding malachite green reagent (15 µl) and placed at room temperature for 4 to 6 min. Finally, absorbance was measured at 630 nm by using Omega FLUOstar microplate reader (BMG Labtech, Ortenberg, Germany) and % inhibitions were calculated. For compounds showing more than 50% inhibition of any isozyme, dose response curves were generated and their IC50 values were determined. Three separate enzyme inhibition assays were carried out in triplicate and dose-response curve were generated by using PRISM 5.0 (GraphPad, San Diego, United States).
Same procedure was adopted to determine the inhibitory effects of compounds on mouse NTPDases (m-NTPDases). However, the amount of protein used was as follows: m-NTPDase1 (82 ng/well), m-NTPDase2 (57 ng/well), m-NTPDase3 (110 ng/well) and m-NTPDase8 (79 ng/well)

[2] = target: T2, h-NTPDase8 (Homo sapiens, UniProt Q5MY95); assay: h-NTPDase8 inhibition, malachite green assay; details: for inhibition at 100 µM: compound 100 µM; for IC50: ATP 100 µM substrate, mean ± SEM of three independent experiments
T2 construct: made in house; host or cells: COS-7 cells, transient transfection; crude protein extract after sonication
T2 sequence (Q5MY95 1-495): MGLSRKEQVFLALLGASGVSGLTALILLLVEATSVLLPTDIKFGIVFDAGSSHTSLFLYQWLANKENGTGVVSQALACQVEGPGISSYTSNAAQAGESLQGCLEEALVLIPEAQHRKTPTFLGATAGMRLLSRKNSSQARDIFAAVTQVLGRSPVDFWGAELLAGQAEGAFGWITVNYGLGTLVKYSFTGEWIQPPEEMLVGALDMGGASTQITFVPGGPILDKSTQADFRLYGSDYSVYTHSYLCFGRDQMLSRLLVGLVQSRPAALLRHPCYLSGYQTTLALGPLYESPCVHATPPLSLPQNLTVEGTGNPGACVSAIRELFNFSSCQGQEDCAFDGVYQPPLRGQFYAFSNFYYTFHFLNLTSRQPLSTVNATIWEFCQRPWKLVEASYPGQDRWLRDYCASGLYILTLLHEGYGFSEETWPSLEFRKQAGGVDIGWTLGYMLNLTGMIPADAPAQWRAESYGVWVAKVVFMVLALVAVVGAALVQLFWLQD
Description: as §1, §2, §3

[3] = target: T3, h-NTPDase1 (Homo sapiens, UniProt P49961); assay: h-NTPDase1 inhibition, malachite green assay; details: for inhibition at 100 µM / Ki / IC50: human NTPDase1; for inhibition at 100 µM: compound 100 µM; for IC50: ATP 100 µM substrate, mean ± SEM of three independent experiments
T3 construct: made in house; host or cells: COS-7 cells, transient transfection; crude protein extract after sonication
T3 sequence (P49961 1-510): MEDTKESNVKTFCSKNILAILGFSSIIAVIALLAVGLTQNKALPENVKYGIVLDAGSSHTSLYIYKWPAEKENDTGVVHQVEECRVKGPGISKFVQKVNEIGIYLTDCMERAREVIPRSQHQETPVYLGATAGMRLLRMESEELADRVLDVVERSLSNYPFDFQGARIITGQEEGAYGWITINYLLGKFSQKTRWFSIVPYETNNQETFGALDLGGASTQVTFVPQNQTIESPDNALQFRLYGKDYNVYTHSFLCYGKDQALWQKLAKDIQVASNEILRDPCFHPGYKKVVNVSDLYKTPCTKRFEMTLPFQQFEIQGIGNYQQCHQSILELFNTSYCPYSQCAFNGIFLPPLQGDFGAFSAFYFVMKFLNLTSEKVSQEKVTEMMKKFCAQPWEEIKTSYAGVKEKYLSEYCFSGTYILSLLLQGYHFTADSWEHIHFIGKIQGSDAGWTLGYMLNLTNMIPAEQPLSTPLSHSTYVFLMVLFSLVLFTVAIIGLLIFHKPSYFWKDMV
Description: as §1, §2, §3

Row | Structure (SMILES) | inhibition at 100 µM [1] [%] | inhibition at 100 µM [2] [%] | inhibition at 100 µM [3] [%] | Ki [3] [µM] | IC50 [3] [µM] | Ki [2] [µM] | IC50 [2] [µM] | Ki [1] [µM] | IC50 [1] [µM] | Mode of inhibition of h-NTPDase1 ([3]; Lineweaver-Burk plot)
1 | O=C1Nc2ccccc2/C1=N/NC(=S)Nc1ccccc1 [8a, (Z)-2-(2-oxoindolin-3-ylidene)-N-phenylhydrazine-1-carbothioamide] | 31 | 24 | 45 |  |  |  |  |  |  | 
2 | O=C1Nc2ccccc2/C1=N/NC(=S)Nc1cccc(Cl)c1 [8g, (Z)-N-(3-chlorophenyl)-2-(2-oxoindolin-3-ylidene)hydrazine-1-carbothioamide] | 27 | 7 | 28 |  |  |  |  |  |  | 
3 | Cc1cccc(C)c1NC(=S)N/N=C1\C(=O)Nc2ccccc21 [8i, (Z)-N-(2,6-dimethylphenyl)-2-(2-oxoindolin-3-ylidene)hydrazine-1-carbothioamide] | 32 | 17 |  | 0.24 | 1.63 ± 0.15 |  |  |  |  | 
4 | COc1ccc(OC)c(NC(=S)N/N=C2\C(=O)Nc3ccccc32)c1 [8j, (Z)-N-(2,5-dimethoxyphenyl)-2-(2-oxoindolin-3-ylidene)hydrazine-1-carbothioamide] | 30 | 19 |  | 0.02 | 0.15 ± 0.01 |  |  |  |  | 
5 | O=C1Nc2ccccc2/C1=N/NC(=S)NCc1ccccc1 [8f, (Z)-N-benzyl-2-(2-oxoindolin-3-ylidene)hydrazine-1-carbothioamide] | 32 | < 50 |  | 0.03 | 0.24 ± 0.01 |  |  |  |  | 
6 | COc1ccc(NC(=S)NNC2=c3ccccc3=NC2=O)cc1 [8k, (Z)-N-(4-methoxyphenyl)-2-(2-oxoindolin-3-ylidene)hydrazine-1-carbothioamide] | 36 | 46 | 44 |  |  |  |  |  |  | 
7 | Cc1ccc(C(=O)Nc2ccc(S(=O)(=O)O)c3cc(S(=O)(=O)O)cc(S(=O)(=O)O)c23)cc1NC(=O)c1cccc(NC(=O)Nc2cccc(C(=O)Nc3cc(C(=O)Nc4ccc(S(=O)(=O)O)c5cc(S(=O)(=O)O)cc(S(=O)(=O)O)c45)ccc3C)c2)c1 [Suramin, reference compound] |  |  |  | 2.33 | 16.1 ± 1.02 |  | > 100 | 3.07 | 31 ± 2 | 
8 | CCNC(=S)N/N=C1\C(=O)Nc2ccccc21 [8m, (Z)-N-ethyl-2-(2-oxoindolin-3-ylidene)hydrazine-1-carbothioamide] |  | 38 |  | 0.38 | 2.6 ± 0.02 |  |  | 0.24 | 2.41 ± 0.15 | 
9 | COc1cccc(NC(=S)N/N=C2\C(=O)Nc3ccccc32)c1 [8e, (Z)-N-(3-methoxyphenyl)-2-(2-oxoindolin-3-ylidene)hydrazine-1-carbothioamide] |  |  |  | 0.15 | 0.15 ± 0.009 |  |  | 0.07 | 0.7 ± 0.05 | non-competitive

Next, values leading:

Row | inhibition at 100 µM [1] [%] | inhibition at 100 µM [2] [%] | inhibition at 100 µM [3] [%] | Ki [3] [µM] | IC50 [3] [µM] | Ki [2] [µM] | IC50 [2] [µM] | Ki [1] [µM] | IC50 [1] [µM] | Mode of inhibition of h-NTPDase1 ([3]; Lineweaver-Burk plot) | Structure (SMILES)
10 | 31 | 22 | 49 |  |  |  |  |  |  |  | Cc1ccc(NC(=S)N/N=C2\C(=O)Nc3ccccc32)cc1 [8h, (Z)-2-(2-oxoindolin-3-ylidene)-N-(p-tolyl)hydrazine-1-carbothioamide]
11 | 28 |  |  | 0.04 | 0.29 ± 0.02 |  |  |  |  |  | O=C1Nc2ccccc2/C1=N/NC(=S)Nc1ccc([N+](=O)[O-])cc1 [8b, (Z)-N-(4-nitrophenyl)-2-(2-oxoindolin-3-ylidene)hydrazine-1-carbothioamide]
12 |  |  |  | 0.03 | 0.23 ± 0.01 | 0.11 | 0.24 ± 0.02 |  |  |  | O=C1Nc2ccccc2/C1=N/NC(=S)Nc1ccc(Cl)cc1 [8c, (Z)-N-(4-chlorophenyl)-2-(2-oxoindolin-3-ylidene)hydrazine-1-carbothioamide]
13 |  | < 50 |  | 0.04 | 0.3 ± 0.03 |  |  | 0.03 | 0.32 ± 0.04 |  | O=C1Nc2ccccc2/C1=N/NC(=S)Nc1c(F)cccc1F [8l, (Z)-N-(2,6-difluorophenyl)-2-(2-oxoindolin-3-ylidene)hydrazine-1-carbothioamide]
14 | 29 | 33 | 49.1 |  |  |  |  |  |  |  | O=C1Nc2ccccc2/C1=N/NC(=S)Nc1ccc(F)cc1 [8d, (Z)-N-(4-fluorophenyl)-2-(2-oxoindolin-3-ylidene)hydrazine-1-carbothioamide]
